The record followed here is US20250320523A1, “PHAGOCYTOSIS ASSAY COMBINING A SYNTHETIC CELL DEATH SWITCH AND A PHAGOCYTOSIS REPORTER SYSTEM” (Hoffmann-La Roche Inc., priority 2022, published 2025).

Experiment [1] deals with phagocytosis by iPSC-derived microglia. Briefly: 2D phagocytosis of apoptotic H4-iCaspase-SEP-mCherry cells by iPSC-derived microglia (Incucyte imaging). To be noted: 1 uM Cytochalasin D added 30 min before imaging; apoptosis induced with 10 nM AP20187. The class given is cell-based, human. The procedure:
H4 cells were transduced with a lentiviral vector containing iCaspase-SEP-mCherry, single-cell sorted for SEP and mCherry double-positive cells and expanded in 1 μg/ml Puromycin-containing media to select for stably transduced cells. HMC3 or iPSC-derived microglia (Reich, M et al. Alzheimer's Risk Gene TREM2 Determines Functional Properties of New Type of Human iPSC-Derived Microglia. 2021; 11:617860) were seeded in a 96-well imaging plate […]. To visualize microglial morphology during the phagocytosis assay, cells were stained with a far-red viability dye (eBioscience). H4-iCaspase-SEP-mCherry cells were added the next day and left to attach for 3 h. […] Apoptosis was induced at to by adding 10 nM AP20187 to the media, and time-lapse imaging was immediately started on an inverted fluorescence microscope (Leica) or incucyte (Sartorius), 10× objective, 1 image every 10 minutes for 8 hours or more.
The number of phagocytosed cells per area was determined using the incucyte software for automated image quantification, by 1) segmenting individual cells, 2) identifying all H4-iCaspase-SEP-mCherry cells positive for mCherry (red fluorescence) and 3) from those cells, identifying the SEP (green fluorescence) negative cells as phagocytosed cells. […]

Experiment [2] deals with efferocytosis by THP-1 macrophages. As to the kind of experiment: Efferocytosis of Jurkat-iCaspase-SEP-mCherry cells by THP-1 macrophages, flow cytometry. The class given is cell-based. The note with it: Jurkat cells pre-treated, then 10 nM AP20187, incubated with THP-1 macrophages. The procedure: Jurkat cells were transduced with a lentiviral vector containing iCaspase-SEP-mCherry, FACS sorted for SEP- and mCherry-expression and expanded in 1 ug/ml Puromycin-containing media to select for stably transduced cells. For pre-treatments, the Jurkat cells were incubated with GAS6, an efferocytosis enhancer, or Cytochalasin D, an efferocytosis inhibitor, then exposed to 10 nM AP20187 and incubated with THP-1 macrophages. As a control, Jurkat cells were treated with Staurosporin and labeled with pHrodo (red pH-sensitive fluorophore). Efferocytosis was quantified using flow cytometry, by gating for mCherry-positive and SEP-negative cells (apoptotic cells taken up by THP1), and for pHrodo-high cells in the control samples.
Background: A flow cytometer gives signals particle by particle.

Experiment [3] deals with HEK293 cells transfected with iCaspase9. As to the kind of experiment: Apoptosis induction in iCaspase9-transfected HEK293 cells, AnnexinV/viability dye flow cytometry. The class given is cell-based. The procedure:
HEK293 cells were transfected with 2 μg of iCaspase9 construct by nucleofection (Amaxa 4D nucleofector by Lonza, program CM-130) and plated in a 24-well plate. The following day, 100 nM AP20187 was added to the cells, and analyzed 1 h, 2 h or 3 h later. For the control, the cells were incubated with […] Staurosporine for 3 h. For the analysis, the cells were harvested and labeled with AnnexinV-BV421 and viability dye APCeF780 and analyzed by flow cytometry. Apoptotic cells were qualified as AnnexinV-positive and viability dye-negative.

The subject of experiment [4] is H4-iCaspase-SEP-mCherry cells in neurovascular unit model. Briefly: Phagocytosis assay in 3D neurovascular unit model in microfluidic chip. The class given is cell-based, human. The note with it: 10 nM AP20187, 3D matrix of microfluidic chip, after 7 days culture. The procedure:
H4 cells were transduced with a lentiviral vector containing iCaspase-SEP-mCherry, single-cell sorted for SEP- and mCherry double positive cells and expanded in 1 μg/ml Puromycin-containing media to select for stably transduced cells. H4-iCaspase-SEP-mCherry and HMC3 microglia were co-seeded with primary human brain endothelial cells, pericytes and astrocytes (Sciencell) at the ratio 1:1:4:0.5:1 and left to self-assemble to neurovascular units inside a fibrin gel matrix in a microfluidic chip (AIM Biotech). The cells were seeded into the microfluidic chips as described in Campisi, M et al.3D Self-Organized Human Blood-Brain Barrier in a Microfluidic Chip. Methods Mol Biol. 2021; 2258:205-219, and the vascular networks were grown over 7 days in EGM2 medium (Lonza) with astrocyte growth supplement (Sciencell). Apoptosis was induced at t0 by adding 10 nM AP20187 to the media, the chips were then fixed in 4% PFA after 30 minutes or 2 h, counterstained with DAPI and imaged on an inverted fluorescence microscope.

Experiment [5] has as its system H4-iCaspase-SEP-mCherry cells in blood-brain barrier spheroids. Briefly: Phagocytosis assay in 3D BBB spheroids (H4-iCaspase-SEP-mCherry and HMC3 microglia). The class given is cell-based, human. The note with it: 100 nM AP20187, day 2, imaged 8 hours. The procedure: H4 cells were transduced with a lentiviral vector containing iCaspase-SEP-mCherry, single-cell sorted for SEP- and mCherry double-positive cells and expanded in 1 μg/ml Puromycin-containing media to select for stably transduced cells. H4-iCaspase-SEP-mCherry and HMC3 microglia were co-seeded with primary human brain endothelial cells, pericytes and astrocytes (Sciencell) to form blood-brain barrier (BBB) spheroids as described by Simonneau, C et al. Investigating receptor-mediated antibody transcytosis using blood-brain barrier organoid arrays. Fluids Barriers CNS. 2021; 18 (1): 43. Briefly, the cells were combined at a 1:1:1:1:1 ratio and seeded into a glass-bottom GRI3D microwell plate (SUN Biosciences). After 2 days of culture in EGM2 medium (Lonza) with astrocyte growth supplement (Sciencell), a timelapse experiment was performed as described above (for FIG. 4): Apoptosis was induced at t0 by adding 100 nM AP20187 to the media, and time-lapse imaging was immediately started on an inverted fluorescence microscope (Leica) using autofocus, 10× objective, 1 image every 10 minutes for 8 hours or more.

For the molecule `C=C1[C@@H](C)[C@H]2[C@H](Cc3ccccc3)NC(=O)[C@]23[C@H](OC(C)=O)/C=C/[C@@](C)(O)C(=O)[C@@H](C)C/C=C/[C@H]3[C@@H]1O` [Cytochalasin D], the “onset and total amount of phagocytosed apoptotic cells” value in experiment [1] is “reduces both the onset and total amount”. In experiment [2], the “uptake of apoptotic cells by macrophages” value is “lowest uptake”. As to `CN[C@@H]1C[C@H]2O[C@@](C)([C@@H]1OC)n1c3ccccc3c3c4c(c5c6ccccc6n2c5c31)C(=O)NC4` [Staurosporine], the “apoptotic cells (AnnexinV-positive and viability dye-negative)” value in experiment [3] (Staurosporine, after 3 h) is 36%. On to `CC[C@H](C(=O)N1CCCC[C@H]1C(=O)O[C@H](CCc1ccc(OC)c(OC)c1)c1cccc(OCC(=O)NCC(CNC(=O)COc2cccc([C@@H](CCc3ccc(OC)c(OC)c3)OC(=O)[C@@H]3CCCCN3C(=O)[C@@H](CC)c3cc(OC)c(OC)c(OC)c3)c2)CN(C)C)c1)c1cc(OC)c(OC)c(OC)c1` [AP20187], for which, in experiment [4], the “time to efficient induction of apoptosis in transduced cells” value is not above 30 min. In addition, the “apoptotic cells (AnnexinV-positive and viability dye-negative)” value in experiment [3] (100 nM AP20187, after 1 h, iCaspase9 HEK293 cells) came out at 88%. Further, the “SEP signal of spheroids (loss indicates phagocytosis)” value in experiment [5] is listed as “gradually lost SEP signal”.

B1: GAS6: an efferocytosis enhancer (protein, UniProt Q14393 31-678, looked up)
Growth arrest-specific …: ALLPAREATQFLRPRQRRAFQVFEEAKQGHLERECVEELCSREEAREVFENDPETDYFYPRYLDCINKYGSPYTKNSGFATCVQNLPDQCTPNPCDRKGTQACQDLMGNFFCLCKAGWGGRLCDKDVNECSQENGGCLQICHNKPGSFHCSCHSGFELSSDGRTCQDIDECADSEACGEARCKNLPGSYSCLCDEGFAYSSQEKACRDVDECLQGRCEQVCVNSPGSYTCHCDGRGGLKLSQDMDTCEDILPCVPFSVAKSVKSLYLGRMFSGTPVIRLRFKRLQPTRLVAEFDFRTFDPEGILLFAGGHQDSTWIVLALRAGRLELQLRYNGVGRVTSSGPVINHGMWQTISVEELARNLVIKVNRDAVMKIAVAGDLFQPERGLYHLNLTVGGIPFHEKDLVQPINPRLDGCMRSWNWLNGEDTTIQETVKVNTRMQCFSVTERGSFYPGSGFAFYSLDYMRTPLDVGTESTWEVEVVAHIRPAADTGVLFALWAPDLRAVPLSVALVDYHSTKKLKKQLVVLAVEHTALALMEIKVCDGQEHVVTVSLRDGEATLEVDGTRGQSEVSAAQLQERLAVLERHLRSPVLTFAGGLPDVPVTSAPVTAFYRGCMTLEVNRRLLDLDEAAYKHSDITAHSCPPVEPAAA
With B1, the “uptake of apoptotic cells by macrophages” value in experiment [2] is recorded as “highest uptake”.
